Data: patent US12116343B2, “Inhibitors of APOL1 and methods of using same” (Vertex Pharmaceuticals Incorporated, priority 2020, dated 2024)

biological target: T1, APOL1 G1 Protein (Homo sapiens, UniProt O14791, I384M/S342G); assay: Trypanosoma brucei brucei lysis assay using APOL1 recombinant protein (AlamarBlue viability); type: cell-based; conditions: Table 24, Compounds 287 to 465; read-out: Trypanosoma Assay (IC50)
T1 sequence (O14791 28-398 S342G/I384M): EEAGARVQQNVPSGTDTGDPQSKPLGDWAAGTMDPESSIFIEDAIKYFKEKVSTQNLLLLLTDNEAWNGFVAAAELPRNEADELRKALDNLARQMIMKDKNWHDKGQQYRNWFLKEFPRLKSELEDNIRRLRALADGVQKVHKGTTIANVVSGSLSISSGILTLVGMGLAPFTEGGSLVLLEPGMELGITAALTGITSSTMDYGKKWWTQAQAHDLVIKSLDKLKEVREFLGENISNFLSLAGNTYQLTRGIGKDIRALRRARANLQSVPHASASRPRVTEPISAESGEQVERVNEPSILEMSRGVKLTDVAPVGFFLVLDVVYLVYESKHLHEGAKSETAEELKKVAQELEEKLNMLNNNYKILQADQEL
Procedure, shortened: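 Bloodstream-form T. b. brucei Lister 427 VSG 221, 120,000 parasites/well in phenol red-free, FBS-free medium, lysed by recombinant APOL1 G1 with compound (10-point dose response, 0.1% DMSO final). Viability read by AlamarBlue fluorescence against a parasite standard curve.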

Row | SMILES | IC50
1 | NC(=O)CC1CC(c2c(-c3ccc(F)cc3)[nH]c3c(F)cc(F)cc23)C1 (stereo not shown) [Compound 455] | < 250 nM
2 | NC(=O)CNC[C@H]1C[C@@H](c2c(-c3ccc(F)cc3)[nH]c3c(F)cc(F)cc32)C1 [Compound 447] | < 250 nM

same assay, conditions: Trypanosoma Assay (IC50), Trypanosoma brucei brucei lysis, recombinant APOL1, AlamarBlue

Row | SMILES | IC50
3 | O=C([C@H]1C[C@H](c2c(-c3ccc(F)cc3)[nH]c3c(F)cc(F)cc32)C1)N1CCC(O)(O)CC1 [Compound 127] | 250 to 1000 nM

same assay, conditions: Trypanosoma brucei brucei lysis, recombinant APOL1, AlamarBlue; read-out: Trypanosoma Assay (IC50)

Row | SMILES | IC50
4 | O=C1NCC[C@H]1NC(=O)[C@H]1C[C@H](c2c(-c3ccc(F)cc3)[nH]c3c(F)cc(F)cc32)C1 [Compound 45] | < 250 nM
5 | O=C([C@H]1C[C@H](c2c(-c3ccc(F)cc3)[nH]c3c(F)cc(F)cc32)C1)N1CCC(O)(CO)CC1 [Compound 87] | > 1000 nM
6 | CC(NC(=O)[C@H]1C[C@H](c2c(-c3ccc(F)cc3)[nH]c3c(F)cc(F)cc32)C1)C(N)=O (mixture of isomers) [Compound 68] | 250 to 1000 nM
7 | CC(N)(C(=O)NC(=O)[C@H]1C[C@H](c2c(-c3ccc(F)cc3)[nH]c3c(F)cc(F)cc32)C1)C(F)(F)F (stereo partly shown) [Compound 60] | 250 to 1000 nM
8 | Cn1cnc(CNC(=O)[C@H]2C[C@H](c3c(-c4ccc(F)cc4)[nH]c4c(F)cc(F)cc43)C2)c1 [Compound 48] | < 250 nM
9 | CCNC(=O)[C@@H]1CCCN1C(=O)[C@H]1C[C@H](c2c(-c3ccc(F)cc3)[nH]c3c(F)cc(F)cc32)C1 [Compound 64] | > 1000 nM
10 | O=C(CNC(=O)[C@H]1C[C@H](c2c(-c3ccc(F)cc3)[nH]c3c(F)cc(F)cc32)C1)NC1CC1 [Compound 50] | > 1000 nM
11 | NC(=O)C1CCCCN1C(=O)[C@H]1C[C@H](c2c(-c3ccc(F)cc3)[nH]c3c(F)cc(F)cc32)C1 (stereo partly shown) [Compound 92] | 250 to 1000 nM
12 | Cc1cc(CNC(=O)[C@H]2C[C@H](c3c(-c4ccc(F)cc4)[nH]c4c(F)cc(F)cc43)C2)nn1C [Compound 73] | 250 to 1000 nM
13 | O=C(NCC1(O)CCCCC1)[C@H]1C[C@H](c2c(-c3ccc(F)cc3)[nH]c3c(F)cc(F)cc32)C1 [Compound 80] | > 1000 nM
14 | CN(CC(N)=O)C(=O)[C@H]1C[C@H](c2c(-c3ccc(F)cc3)[nH]c3c(F)cc(F)cc32)C1 [Compound 51] | 250 to 1000 nM
15 | O=C(NCC1CCOCC1)[C@H]1C[C@H](c2c(-c3ccc(F)cc3)[nH]c3c(F)cc(F)cc32)C1 [Compound 42] | > 1000 nM
16 | O=C([C@H]1C[C@H](c2c(-c3ccc(F)cc3)[nH]c3c(F)cc(F)cc32)C1)N1C[C@@H](CO)OCC12CC2 [Compound 57] | > 1000 nM
17 | COCC1(CNC(=O)[C@H]2C[C@H](c3c(-c4ccc(F)cc4)[nH]c4c(F)cc(F)cc43)C2)CC1 [Compound 53] | > 1000 nM
18 | CC1(O)CN(C(=O)[C@H]2C[C@H](c3c(-c4ccc(F)cc4)[nH]c4c(F)cc(F)cc43)C2)C1 [Compound 74] | 250 to 1000 nM
19 | NC(=O)[C@@H]1CCCN1C(=O)[C@H]1C[C@H](c2c(-c3ccc(F)cc3)[nH]c3c(F)cc(F)cc32)C1 [Compound 88] | > 1000 nM
20 | O=C([C@H]1C[C@H](c2c(-c3ccc(F)cc3)[nH]c3c(F)cc(F)cc32)C1)N(CCO)C1CC1 [Compound 52] | 250 to 1000 nM
21 | NCCCNC(=O)[C@H]1C[C@H](c2c(-c3ccc(F)cc3)[nH]c3c(F)cc(F)cc32)C1 [Compound 4] | < 250 nM
22 | NC(=O)CNC(=O)[C@H]1C[C@H](c2c(-c3ccc(F)cc3)[nH]c3c(F)cc(F)cc32)C1 [Compound 1, N-(2-amino-2-oxo-ethyl)-3-[5,7-difluoro-2-(4-fluorophenyl)-1H-indol-3-yl]cyclobutanecarboxamide] | < 250 nM
23 | C[C@@H](NC(=O)[C@H]1C[C@H](c2c(-c3ccc(F)cc3)[nH]c3c(F)cc(F)cc32)C1)C(=O)N(C)C [Compound 61] | > 1000 nM
24 | O=C(NC(CO)CF)[C@H]1C[C@H](c2c(-c3ccc(F)cc3)[nH]c3c(F)cc(F)cc32)C1 (stereo partly shown) [Compound 78] | < 250 nM
25 | O=C(NCCO)[C@H]1C[C@H](c2c(-c3ccc(F)cc3)[nH]c3c(F)cc(F)cc32)C1 [Compound 46, 3-[5,7-difluoro-2-(4-fluorophenyl)-1H-indol-3-yl]-N-(2-hydroxyethyl)cyclobutanecarboxamide] | < 250 nM
26 | CC(C)N1CCN(C(=O)[C@H]2C[C@H](c3c(-c4ccc(F)cc4)[nH]c4c(F)cc(F)cc43)C2)CC1=O [Compound 63] | > 1000 nM
27 | CC(NC(=O)[C@H]1C[C@H](c2c(-c3ccc(F)cc3)[nH]c3c(F)cc(F)cc32)C1)c1ccn[nH]1 (mixture of isomers) [Compound 81] | 250 to 1000 nM
28 | CCOCC1(CNC(=O)[C@H]2C[C@H](c3c(-c4ccc(F)cc4)[nH]c4c(F)cc(F)cc43)C2)CC1 [Compound 55] | > 1000 nM
29 | O=C([C@H]1C[C@H](c2c(-c3ccc(F)cc3)[nH]c3c(F)cc(F)cc32)C1)N1CCCCC1CCO (stereo partly shown) [Compound 94] | > 1000 nM
30 | O=C(NCC1(CO)COC1)[C@H]1C[C@H](c2c(-c3ccc(F)cc3)[nH]c3c(F)cc(F)cc32)C1 [Compound 83] | > 1000 nM
31 | Cn1ccc(CNC(=O)[C@H]2C[C@H](c3c(-c4ccc(F)cc4)[nH]c4c(F)cc(F)cc43)C2)n1 [Compound 71] | < 250 nM

Row | SMILES | IC50
32 | C[C@H](NC(=O)[C@H]1C[C@H](c2c(-c3ccc(F)cc3)[nH]c3c(F)cc(F)cc32)C1)C(=O)N(C)C [Compound 65] | 250 to 1000 nM
33 | O=C1CC(NC(=O)[C@H]2C[C@H](c3c(-c4ccc(F)cc4)[nH]c4c(F)cc(F)cc43)C2)CN1 (mixture of isomers) [Compound 44] | > 1000 nM
34 | O=C(NC1(CCO)CC1)[C@H]1C[C@H](c2c(-c3ccc(F)cc3)[nH]c3c(F)cc(F)cc32)C1 [Compound 59] | 250 to 1000 nM
35 | NCC(O)CNC(=O)[C@H]1C[C@H](c2c(-c3ccc(F)cc3)[nH]c3c(F)cc(F)cc32)C1 (stereo partly shown) [Compound 3] | 250 to 1000 nM
36 | CN(CC1(CO)CC1)C(=O)[C@H]1C[C@H](c2c(-c3ccc(F)cc3)[nH]c3c(F)cc(F)cc32)C1 [Compound 49] | > 1000 nM
37 | O=C(OC1CN(C(=O)[C@H]2C[C@H](c3c(-c4ccc(F)cc4)[nH]c4c(F)cc(F)cc43)C2)C1)C1CCOCC1 [Compound 85] | < 250 nM
38 | O=C(NCC1CC(F)(F)C1)[C@H]1C[C@H](c2c(-c3ccc(F)cc3)[nH]c3c(F)cc(F)cc32)C1 [Compound 41] | > 1000 nM
39 | CC(=O)NC1CCCN(C(=O)[C@H]2C[C@H](c3c(-c4ccc(F)cc4)[nH]c4c(F)cc(F)cc43)C2)C1 (stereo partly shown) [Compound 91] | > 1000 nM
40 | C[C@H](O)CNC(=O)[C@H]1C[C@H](c2c(-c3ccc(F)cc3)[nH]c3c(F)cc(F)cc32)C1 [Compound 82] | 250 to 1000 nM
41 | CC1C[C@H](NC(=O)[C@H]2C[C@H](c3c(-c4ccc(F)cc4)[nH]c4c(F)cc(F)cc43)C2)C(=O)N1 (mixture of isomers) [Compound 84] | 250 to 1000 nM
42 | CN(CC(C)(C)O)C(=O)[C@H]1C[C@H](c2c(-c3ccc(F)cc3)[nH]c3c(F)cc(F)cc32)C1 [Compound 93] | > 1000 nM
43 | O=C(NCC1(O)CCCC1)[C@H]1C[C@H](c2c(-c3ccc(F)cc3)[nH]c3c(F)cc(F)cc32)C1 [Compound 69] | > 1000 nM
44 | CN(CCO)C(=O)[C@H]1C[C@H](c2c(-c3ccc(F)cc3)[nH]c3c(F)cc(F)cc32)C1 [Compound 79] | < 250 nM
45 | CC(O)CN(C)C(=O)[C@H]1C[C@H](c2c(-c3ccc(F)cc3)[nH]c3c(F)cc(F)cc32)C1 (stereo partly shown) [Compound 90] | 250 to 1000 nM
46 | CN1CC(CNC(=O)[C@H]2C[C@H](c3c(-c4ccc(F)cc4)[nH]c4c(F)cc(F)cc43)C2)CC1=O (stereo partly shown) [Compound 70] | > 1000 nM
47 | O=C(NC1(CO)CC1)[C@H]1C[C@H](c2c(-c3ccc(F)cc3)[nH]c3c(F)cc(F)cc32)C1 [Compound 47] | < 250 nM
48 | CC(C)(O)C1CN(C(=O)[C@H]2C[C@H](c3c(-c4ccc(F)cc4)[nH]c4c(F)cc(F)cc43)C2)C1 [Compound 86] | > 1000 nM
49 | O=C1NCCC1NC(=O)[C@H]1C[C@H](c2c(-c3ccc(F)cc3)[nH]c3c(F)cc(F)cc32)C1 (stereo partly shown) [Compound 2] | < 250 nM
50 | CN(C)C(=O)CN(C)C(=O)[C@H]1C[C@H](c2c(-c3ccc(F)cc3)[nH]c3c(F)cc(F)cc32)C1 [Compound 62] | > 1000 nM
51 | CC(NC(=O)[C@H]1C[C@H](c2c(-c3ccc(F)cc3)[nH]c3c(F)cc(F)cc32)C1)c1ccnn1C (mixture of isomers) [Compound 76] | > 1000 nM
52 | CC(NC(=O)[C@H]1C[C@H](c2c(-c3ccc(F)cc3)[nH]c3c(F)cc(F)cc32)C1)c1ccn(C)n1 (mixture of isomers) [Compound 75] | < 250 nM
53 | COCC1(NC(=O)[C@H]2C[C@H](c3c(-c4ccc(F)cc4)[nH]c4c(F)cc(F)cc43)C2)CC1 [Compound 54] | < 250 nM
54 | CC(C)(NC(=O)[C@H]1C[C@H](c2c(-c3ccc(F)cc3)[nH]c3c(F)cc(F)cc32)C1)C(=O)N1CCOCC1 [Compound 66] | > 1000 nM
55 | COCc1cc(CNC(=O)[C@H]2C[C@H](c3c(-c4ccc(F)cc4)[nH]c4c(F)cc(F)cc43)C2)n[nH]1 [Compound 72] | > 1000 nM
56 | CN1CCN(C(=O)CNC(=O)[C@H]2C[C@H](c3c(-c4ccc(F)cc4)[nH]c4c(F)cc(F)cc43)C2)CC1 [Compound 67] | > 1000 nM
57 | NC(=O)C1(NC(=O)[C@H]2C[C@H](c3c(-c4ccc(F)cc4)[nH]c4c(F)cc(F)cc43)C2)CC1 [Compound 56] | 250 to 1000 nM
58 | CN(C(=O)[C@H]1C[C@H](c2c(-c3ccc(F)cc3)[nH]c3c(F)cc(F)cc32)C1)C1(CO)CC1 [Compound 58] | 250 to 1000 nM
